# Source: US8350027B2, “Dual-acting pyrazole antihypertensive agents” (Theravance, Inc., priority 2009, dated 2013)
# Legend:
# [1] = target: T1, human AT1 receptor (Homo sapiens, UniProt P30556); assay: AT1 radioligand binding assay (displacement of [Eu]AngII); details: membranes of CHO-K1 cells expressing cloned human AT1 receptor; values given as lower bounds; read-out: AT1 pKi (converted)
# T1 construct: expressed in transfected cells; host or cells: CHO-K1
# T1 sequence (P30556 1-359): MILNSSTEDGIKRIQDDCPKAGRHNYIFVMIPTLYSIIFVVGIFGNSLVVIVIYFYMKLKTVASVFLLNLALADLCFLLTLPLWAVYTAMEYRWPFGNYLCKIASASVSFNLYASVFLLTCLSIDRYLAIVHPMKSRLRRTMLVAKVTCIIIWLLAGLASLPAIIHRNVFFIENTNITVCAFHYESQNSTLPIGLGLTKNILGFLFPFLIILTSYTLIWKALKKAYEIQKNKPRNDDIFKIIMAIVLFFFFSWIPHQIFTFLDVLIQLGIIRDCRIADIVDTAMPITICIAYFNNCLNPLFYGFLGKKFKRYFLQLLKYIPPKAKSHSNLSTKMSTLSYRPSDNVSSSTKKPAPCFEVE
# Outline: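 Membranes from CHO-K1 cells stably expressing cloned human AT1, 0.2 μg protein, in 50 mM Tris/HCl pH 7.5, 5 mM MgCl2, 0.025% BSA. Compounds displaced [Eu]AngII over 120 min in the dark at room temperature or 37° C; filter-bound TRF read. Nonspecific binding with 10 μM angiotensin II; IC50 converted to Ki via Cheng-Prusoff, reported as pKi.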
# [2] = target: T2, NEP enzyme (Homo sapiens, UniProt P08473); assay: NEP enzyme inhibition assay (fluorogenic peptide substrate); assay type: biochemical; details: values given as lower bounds; * = prodrugs, may not exhibit NEP activity in an in vitro assay; read-out: NEP pIC50 (converted)
# T2 construct: purchased R&D Systems, Minneapolis, Minn; 1182-ZN
# T2 sequence (P08473 52-750 limits assumed): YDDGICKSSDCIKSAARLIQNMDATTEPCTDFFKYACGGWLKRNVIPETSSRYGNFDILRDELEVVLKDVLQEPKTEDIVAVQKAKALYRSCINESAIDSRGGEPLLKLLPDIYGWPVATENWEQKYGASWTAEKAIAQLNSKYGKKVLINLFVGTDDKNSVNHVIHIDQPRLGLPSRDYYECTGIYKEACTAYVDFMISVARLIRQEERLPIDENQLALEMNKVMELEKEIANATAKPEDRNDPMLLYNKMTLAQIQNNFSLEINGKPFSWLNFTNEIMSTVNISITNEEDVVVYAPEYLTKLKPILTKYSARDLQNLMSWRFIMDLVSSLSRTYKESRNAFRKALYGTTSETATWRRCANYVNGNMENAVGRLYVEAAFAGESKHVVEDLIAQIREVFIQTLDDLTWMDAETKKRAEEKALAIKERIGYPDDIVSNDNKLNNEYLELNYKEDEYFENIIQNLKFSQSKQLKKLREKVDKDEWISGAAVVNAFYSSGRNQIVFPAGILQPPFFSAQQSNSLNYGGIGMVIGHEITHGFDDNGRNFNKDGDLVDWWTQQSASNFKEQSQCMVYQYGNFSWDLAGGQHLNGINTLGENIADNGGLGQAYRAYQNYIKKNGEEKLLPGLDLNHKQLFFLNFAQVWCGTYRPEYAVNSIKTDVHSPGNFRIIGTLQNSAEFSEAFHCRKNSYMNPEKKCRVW
# Outline: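 Recombinant human NEP was run with Mca-BK2 (10 μM) at room temperature in Tris buffer with 1 μM Zn. Compounds (10 μM–20 pM, 12 points) were pre-equilibrated 10 min, then reacted 20 min and acid-stopped. Fluorescence ex 320/em 405 nm, one-site competition fit gives pIC50. Thiol compounds may be pre-treated with 400 μM TCEP.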
smiles,measurement,setting,value
"CCc1cc(C(=O)N[C@H](Cc2ccccc2)[C@@H](O)C(=O)O)nn1Cc1ccc(-c2ccccc2-c2nnn[nH]2)cc1F [Example 3-37, (2R,3R)-3-({5-Ethyl-1-[3-fluoro-2′-(1H-tetrazol-5-yl)-biphenyl-4-ylmethyl]-1H-pyrazole-3-carbonyl}amino)-2-hydroxy-4-phenylbutyric acid]",Ki,[1],≤ 100 nM
same,IC50,[2],≤ 10000 nM
"CCOc1cc(C(=O)N[C@@H](CS)CC(C)C)nn1Cc1ccc(-c2ccccc2-c2nnn[nH]2)cc1F [Example 3-38, 5-Ethoxy-1-[3-fluoro-2′-(1H-tetrazol-5-yl)biphenyl-4-ylmethyl]-1H-pyrazole-3-carboxylic acid ((R)-1-mercaptomethyl-3-methylbutyl)amide]",Ki,[1],≤ 100 nM
same,IC50,[2],≤ 100 nM
"CCCc1cc(C(=O)N[C@H](Cc2ccccc2)[C@@H](O)C(=O)O)nn1Cc1ccc(-c2ccccc2S(=O)(=O)NC(C)=O)cc1 [Example 4, (2R,3R)-3-(1-((2′-(N-Acetylsulfamoyl)biphenyl-4-yl)methyl)-5-propyl-1H-pyrazole-3-carboxamido)-2-hydroxy-4-phenylbutanoic Acid]",Ki,[1],≤ 10 nM
same,IC50,[2],≤ 100 nM
"CCCc1cc(C(=O)N[C@H](Cc2ccccc2)[C@@H](O)C(=O)O)nn1Cc1ccc(-c2ccccc2S(=O)(=O)NC(=O)OC)cc1 [Example 5, (2R,3R)-2-hydroxy-3-(1-((2′-(N-(methoxycarbonyl)-sulfamoyl)biphenyl-4-yl)methyl)-5-propyl-1H-pyrazole-3-carboxamido)-4-phenylbutanoic Acid]",Ki,[1],≤ 10 nM
same,IC50,[2],≤ 100 nM
"CCOc1cc(C(=O)N[C@@H](CS)Cc2ccccc2)nn1Cc1ccc(-c2ccccc2S(=O)(=O)NC(C)=O)cc1F [Example 6-1, 1-(2′-Acetylsulfamoyl-3-fluorobiphenyl-4-ylmethyl)-5-ethoxy-1H-pyrazole-3-carboxylic acid ((R)-1-benzyl-2-mercaptoethyl)amide]",Ki,[1],≤ 10 nM
same,IC50,[2],≤ 100 nM
"CCOc1cc(C(=O)N[C@@H](CS)Cc2ccccc2)nn1Cc1ccc(-c2ccccc2S(=O)(=O)NC(C)=O)cc1 [Example 6-2, 1-(2′-Acetylsulfamoyl-biphenyl-4-ylmethyl)-5-ethoxy-1H-pyrazole-3-carboxylic acid ((R)-1-benzyl-2-mercaptoethyl)amide]",Ki,[1],≤ 10 nM
same,IC50,[2],≤ 100 nM
"CCOc1cc(C(=O)N[C@H](Cc2ccccc2)[C@@H](O)C(=O)O)nn1Cc1ccc(-c2ccccc2S(=O)(=O)NC(C)=O)cc1 [Example 6-3, (2R,3R)-3-{[1-(2′-Acetylsulfamoylbiphenyl-4-ylmethyl)-5-ethoxy-1H-pyrazole-3-carbonyl]amino}-2-hydroxy-4-phenyl-butyric acid]",Ki,[1],≤ 100 nM
same,IC50,[2],≤ 1000 nM
"CCOc1cc(C(=O)N[C@H](Cc2ccccc2)[C@@H](O)C(=O)O)nn1Cc1ccc(-c2ccccc2S(=O)(=O)NC(C)=O)cc1F [Example 6-4, (2R,3R)-3-{[1-(2′-Acetylsulfamoyl-3-fluorobiphenyl-4-ylmethyl)-5-ethoxy-1H-pyrazole-3-carbonyl]amino}-2-hydroxy-4-phenylbutyric acid]",Ki,[1],≤ 10 nM
same,IC50,[2],≤ 100 nM
"CCCc1cc(C(=O)N[C@@H](CS)Cc2ccccc2)nn1Cc1ccc(-c2ccccc2S(=O)(=O)NC(C)=O)cc1 [Example 6-5, 1-(2′-Acetylsulfamoylbiphenyl-4-ylmethyl)-5-propyl-1H-pyrazole-3-carboxylic acid ((R)-1-benzyl-2-mercaptoethyl)amide]",Ki,[1],≤ 10 nM
same,IC50,[2],≤ 100 nM
"CCCc1cc(C(=O)N[C@@H](CS)Cc2ccccc2)nn1Cc1ccc(-c2ccccc2S(=O)(=O)NC(C)=O)c(F)c1 [Example 6-6, 1-(2′-Acetylsulfamoyl-2-fluorobiphenyl-4-ylmethyl)-5-propyl-1H-pyrazole-3-carboxylic acid ((R)-1-benzyl-2-mercaptoethyl)amide]",Ki,[1],≤ 10 nM
same,IC50,[2],≤ 100 nM
"CCCc1cc(C(=O)N[C@H](Cc2ccccc2)[C@@H](O)C(=O)O)nn1Cc1ccc(-c2ccccc2S(=O)(=O)NC(C)=O)c(F)c1 [Example 6-7, (2R,3R)-3-{[1-(2′-Acetylsulfamoyl-2-fluorobiphenyl-4-ylmethyl)-5-propyl-1H-pyrazole-3-carbonyl]amino}-2-hydroxy-4-phenylbutyric acid]",Ki,[1],≤ 10 nM
same,IC50,[2],≤ 100 nM
"CCCc1cc(C(=O)N[C@@H](CC(=O)O)Cc2ccccc2Br)nn1Cc1ccc(-c2ccccc2S(=O)(=O)NC(C)=O)cc1 [Example 6-8, (R)-3-{[1-(2′-Acetylsulfamoylbiphenyl-4-ylmethyl)-5-propyl-1H-pyrazole-3-carbonyl]amino}-4-(2-bromophenyl)butyric acid]",Ki,[1],≤ 10 nM
same,IC50,[2],≤ 1000 nM
"CCCc1cc(C(=O)N[C@H](Cc2ccccc2Cl)[C@@H](O)C(=O)O)nn1Cc1ccc(-c2ccccc2S(=O)(=O)NC(C)=O)cc1 [Example 6-9, (2R,3R)-3-{[1-(2′-Acetylsulfamoylbiphenyl-4-ylmethyl)-5-propyl-1H-pyrazole-3-carbonyl]-amino}-4-(2-chlorophenyl)-2-hydroxy-butyric acid]",Ki,[1],≤ 10 nM
same,IC50,[2],≤ 100 nM
"CCc1cc(C(=O)N[C@H](Cc2ccccc2)[C@@H](O)C(=O)O)nn1Cc1ccc(-c2ccccc2S(=O)(=O)NC(C)=O)cc1F [Example 6-10, (2R,3R)-3-{[1-(2′-Acetylsulfamoyl-3-fluoro-biphenyl-4-ylmethyl)-5-ethyl-1H-pyrazole-3-carbonyl]amino}-2-hydroxy-4-phenylbutyric acid]",Ki,[1],≤ 100 nM
same,IC50,[2],≤ 100 nM
"CCCCc1cc(C(=O)N[C@H](Cc2ccccc2)[C@@H](O)C(=O)O)nn1Cc1ccc(-c2ccccc2S(=O)(=O)NC(C)=O)cc1F [Example 6-11, (2R,3R)-3-{[1-(2′-Acetylsulfamoyl-3-fluorobiphenyl-4-ylmethyl)-5-butyl-1H-pyrazole-3-carbonyl]amino}-2-hydroxy-4-phenylbutyric acid]",Ki,[1],≤ 10 nM
same,IC50,[2],≤ 1000 nM
"CCCc1cc(C(=O)N[C@H](Cc2ccccc2)[C@@H](O)C(=O)O)nn1Cc1ccc(-c2ccccc2S(=O)(=O)NC(=O)C(C)C)cc1 [Example 6-12, (2R,3R)-2-Hydroxy-3-{[1-(2′-isobutyrylsulfamoylbiphenyl-4-ylmethyl)-5-propyl-1H-pyrazole-3-carbonyl]amino}-4-phenylbutyric acid]",Ki,[1],≤ 10 nM
same,IC50,[2],≤ 1000 nM
"CCCc1cc(C(=O)N[C@H](Cc2ccccc2)CN(O)C=O)nn1Cc1ccc(-c2ccccc2S(=O)(=O)NC(C)=O)cc1 [Example 6-13, 1-(2′-Acetylsulfamoyl-biphenyl-4-ylmethyl)-5-propyl-1H-pyrazole-3-carboxylic acid [(R)-1-benzyl-2-(formyl-hydroxy-amino)-ethyl]amide]",Ki,[1],≤ 10 nM
same,IC50,[2],≤ 100 nM
"CCCc1cc(C(=O)N[C@H](Cc2ccccc2)[C@@H](O)C(=O)O)nn1Cc1ccc(-c2ccccc2S(=O)(=O)NC(C)=O)cc1F [Example 6-14, (2R,3R)-3-(1-((2′-(N-acetylsulfamoyl)-3-fluorobiphenyl-4-yl)methyl)-5-propyl-1H-pyrazole-3-carboxamido)-2-hydroxy-4-phenylbutanoic acid]",Ki,[1],≤ 10 nM
same,IC50,[2],≤ 100 nM
"CCCc1cc(C(=O)N[C@H](CC(C)C)CN(O)C=O)nn1Cc1ccc(-c2ccccc2S(=O)(=O)NC(C)=O)cc1 [Example 6-15, 1-(2′-Acetylsulfamoyl-biphenyl-4-ylmethyl)-5-propyl-1H-pyrazole-3-carboxylic acid {(R)-1-[(formyl-hydroxy-amino)-methyl]-3-methylbutyl}amide]",Ki,[1],≤ 10 nM
same,IC50,[2],≤ 100 nM
"CCCc1cc(C(=O)N[C@@H](CC(=O)NO)Cc2ccccc2)nn1Cc1ccc(-c2ccccc2S(=O)(=O)NC(C)=O)cc1F [Example 6-16, 1-(2′-Acetylsulfamoyl-3-fluorobiphenyl-4-ylmethyl)-5-propyl-1H-pyrazole-3-carboxylic acid ((R)-1-hydroxycarbamoylmethyl-2-phenylethyl)amide]",Ki,[1],≤ 10 nM
same,IC50,[2],≤ 100 nM
"CCCc1cc(C(=O)N[C@@H](CC(=O)NO)Cc2ccccc2)nn1Cc1ccc(-c2ccccc2S(=O)(=O)NC(C)=O)c(F)c1 [Example 6-17, 1-(2′-Acetylsulfamoyl-2-fluorobiphenyl-4-ylmethyl)-5-propyl-1H-pyrazole-3-carboxylic acid ((R)-1-hydroxycarbamoylmethyl-2-phenylethyl)amide]",Ki,[1],≤ 10 nM
same,IC50,[2],≤ 100 nM
"CCCc1cc(C(=O)N[C@@H](CC(=O)NO)Cc2ccccc2)nn1Cc1ccc(-c2ccccc2S(=O)(=O)NC(C)=O)cc1 [Example 6-18, 1-(2′-Acetylsulfamoylbiphenyl-4-ylmethyl)-5-propyl-1H-pyrazole-3-carboxylic acid ((R)-1-benzyl-2-hydroxycarbamoylethyl)amide]",Ki,[1],≤ 10 nM
same,IC50,[2],≤ 100 nM
